Like-named read-outs stand apart in the source and are kept apart here.
What was measured:
[1] = tested on: A431; assay: A431 cell proliferation assay (CellTiter Glo, 72 hours); type: cell-based; details: cell proliferation, A431, 72 hours, Table 2, read-out: A431 IC50
Experimental: (§1) Cell line: Ba/F3 cells with EGFR Δ19del/T790M/C797S mutation gene stably overexpressed named Ba/F3-Δ119del/T90M/C797S, and A431 and Ba/F3-EGFR wild-type cell line.
RPMI 1640 and 10% FBS and 1% PS; DMEM and 10% FBS and 1% PS.
a) Dilute the test compound (20 mM stock solution) to 10 mM with 100% DMSO as the starting concentration, and then serially dilute 3 times with a “9+0” concentration in 96-well dilution plate (Cat #P-05525, Labcyte);
b) Dilute compound solution thereof to 1:100 (1:20 for comparative compound 1 and compounds 1-38) in medium to prepare 10-fold working solution;
(§2) a) Centrifuge the growth cells in logarithmic phase at 1000 rpm for 5 minutes, resuspend the cells in culture medium, and then count the cells;
(§3) b) Inoculate the cells into a 96-well cell culture plate with a density of 2000 cells/well;
a) Compounds prepared at step 2 were added to cell plate with 15 μl per well, the final concentrations were 1000, 333, 111.1, 37, 12.3, 4.1, 1.4, 0.5, 0.2 and 0 nM, and the final concentration of DMSO was 0.1%. The blank control well was a culture medium (0.1% DMSO) (the blank control well of comparative compound 1 and compounds 1-38 was a culture medium (0.5% DMSO).
(§4) b) Incubate cells in an incubator for another 72 hours.
(§5) a) Take out the 96-well cell culture plate and add 50 μl CTG reagent (CellTiter Glo kit, promega, Cat #G7573);
(§6) b) Shake the plate for 2 minutes and let cool at room temperature for 10 minutes;
(§7) c) Read luminous signal value with PerkinElmer reader,
(§8) Analysis of Experimental Data
(§9) The data were analyzed by GraphPad Prism 6.0 software to obtain the fitting curve of compound activity.
Fitting compound IC50 from nonlinear regression equation:
(§10) Y=Min+(Max−Min)/(1+10^((Log IC50−X)*slope));
(§11) X: Logarithm of compound concentration; Y: luminous signal.

[2] = target: Ba/F3 cells with EGFR Δ19del/T790M/C797S mutation gene stably overexpressed (Homo sapiens, UniProt P00533, T790M/C797S, cells depend on it, form not given); assay: Ba/F3-Δ19del/T790M/C797S cell proliferation assay (CellTiter Glo, 72 hours); type: cell-based; details: Table 2, read-out: EGFR Δ19del/T790M/C797S IC50
Experimental: as §1, §2, §3, §4, §5, §6, §7, §8, §9, §10, §11

[3] = target: EGFRΔ19del/T790M/C797S (Homo sapiens, UniProt P00533, T790M/C797S, form not given); assay: EGFR Δ19del/T790M/C797S kinase test (mobility variation analysis, Caliper EZ Reader); type: biochemical; details: kinase enzymatic activity, Table 1
Experimental: (§12) Mobility variation analysis was performed to determine the affinity of the compound for EGFRΔ19del/T790M/C797S, EGFR WT and IGF1R. The enzymatic reaction scheme is as follows:
(§13) 1. Prepare 1*kinase buffer as follows.
(§14) 3. […] Prepare 2.5-fold final concentration of kinase solution with 1×Kinase buffer.
(§15) 4. Add 10 μL of 2.5-fold final concentration of kinase solution to the compound well and the positive control well; add 10 μL of 1×Kinase buffer to the negative control well.
(§16) 5. Centrifuge at 1000 rpm for 30 s, shake the reaction plate for well mixing, and then incubate at room temperature for 10 minutes.
(§17) 6. Prepare a mixture of ATP and Kinase substrate at 5/3-fold final concentration with 1×Kinase buffer.
(§18) 8. Centrifuge the 384-well plate at 1000 rpm for 30 s, shake it well and then incubate it at room temperature for corresponding time.
(§19) 9. Add 30 μL of stop detection solution to stop the kinase reaction, centrifuge at 1000 rpm for 30 s, and shake it well.
(§20) 10. Read conversion rate with Caliper EZ Reader.
(§21) % Inhibition=((Conversion%_max−Conversion%_sample)/(Conversion%_max−Conversion%_min))*100
(§22) Wherein: Conversion%_sample is the sample conversion rate reading; Conversion%_min: Mean value of negative control wells, representing the conversion rate reading of wells without enzymatic activity; Conversion%_max: Mean value of positive control wells, representing the conversion rate reading of wells without compound inhibition.
(§23) The dose-effect curve was fitted with concentration log value as X-axis and percentage inhibition rate as Y-axis. GraphPad Prism 5 analysis software was used for fitting Log (inhibitor) vs. response—Variable slope with the dose-effect curve to obtain IC50 value of enzymatic activity for each compound.
(§24) The calculation formula is as Y-Bottom+(Top-Bottom)/(1+10^((Log IC50−X)*HillSlope)).

[4] = target: IGF1R (Homo sapiens, UniProt P08069); assay: IGF1R kinase test (mobility variation analysis, Caliper EZ Reader); type: biochemical; details: kinase enzymatic activity, Table 1; read-out: EGFR IGF1R IC50
Sequence of IGF1R (P08069 31-1367, species assumed): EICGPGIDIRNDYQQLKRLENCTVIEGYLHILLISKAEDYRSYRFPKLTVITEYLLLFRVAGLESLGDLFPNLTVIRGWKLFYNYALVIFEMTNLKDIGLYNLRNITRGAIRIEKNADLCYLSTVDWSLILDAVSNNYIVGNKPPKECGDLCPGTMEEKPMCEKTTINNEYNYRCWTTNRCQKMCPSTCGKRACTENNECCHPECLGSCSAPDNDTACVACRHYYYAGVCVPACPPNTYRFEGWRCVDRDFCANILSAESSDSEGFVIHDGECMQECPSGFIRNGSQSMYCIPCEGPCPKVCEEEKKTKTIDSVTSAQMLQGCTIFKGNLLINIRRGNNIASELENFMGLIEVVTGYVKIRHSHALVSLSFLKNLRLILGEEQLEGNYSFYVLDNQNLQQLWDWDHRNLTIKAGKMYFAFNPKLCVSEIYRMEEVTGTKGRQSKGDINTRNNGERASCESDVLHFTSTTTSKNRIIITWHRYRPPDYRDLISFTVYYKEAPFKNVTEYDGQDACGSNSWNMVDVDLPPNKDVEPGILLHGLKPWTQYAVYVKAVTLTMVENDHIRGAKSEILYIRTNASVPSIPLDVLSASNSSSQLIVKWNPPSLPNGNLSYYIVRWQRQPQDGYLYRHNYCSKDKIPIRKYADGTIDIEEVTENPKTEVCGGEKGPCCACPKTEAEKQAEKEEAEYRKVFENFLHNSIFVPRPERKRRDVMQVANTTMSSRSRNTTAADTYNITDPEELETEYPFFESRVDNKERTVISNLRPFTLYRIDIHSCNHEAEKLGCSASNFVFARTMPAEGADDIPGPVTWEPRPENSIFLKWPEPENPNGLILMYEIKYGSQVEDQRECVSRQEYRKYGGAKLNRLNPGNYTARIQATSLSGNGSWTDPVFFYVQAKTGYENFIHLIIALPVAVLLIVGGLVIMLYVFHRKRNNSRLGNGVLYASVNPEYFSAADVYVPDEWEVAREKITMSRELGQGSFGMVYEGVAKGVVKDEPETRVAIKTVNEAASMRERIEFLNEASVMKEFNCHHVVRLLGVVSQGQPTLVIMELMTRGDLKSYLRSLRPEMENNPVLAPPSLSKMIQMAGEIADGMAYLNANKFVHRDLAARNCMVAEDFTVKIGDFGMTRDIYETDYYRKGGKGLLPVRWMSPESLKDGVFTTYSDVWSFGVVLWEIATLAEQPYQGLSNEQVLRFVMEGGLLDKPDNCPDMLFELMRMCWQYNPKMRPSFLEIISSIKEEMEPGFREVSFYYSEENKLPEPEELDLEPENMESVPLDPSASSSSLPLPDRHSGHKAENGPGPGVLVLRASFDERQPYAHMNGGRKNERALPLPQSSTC
Experimental: as §12, §13
2. Preparation of compound concentration gradient: The test compound was tested with an initial concentration of 3000 nM (300 nM for some triple mutations and 100 nM for others), diluted in a 384 source plate (96-well plate for comparative compound 1 and compounds 1-38) to a 100% DMSO solution with 100-fold final concentration, and the compound is 3-fold diluted with Precision to 10 concentrations. A dispenser Echo 550 was used to transfer 250 nL 100-fold final concentration of the compound to the target plate OptiPlate-384F.
3. Prepare 2.5-fold final concentration (5-fold for comparative compound 1 and compounds 1-38) of kinase solution with 1×Kinase buffer. Following steps should also be carried out for comparative compound 1 and compounds 1-38: Add each prepared intermediate dilution compounds to the compound wells of 384-well plate respectively, and test the repeated wells of each concentration; add 5% DMSO of 5 plates into the negative control well and the positive control well respectively. Prepare 2.5-fold final concentration of kinase solution with 1×Kinase buffer.
as §15, §16, §17
7. Add 15 μL mixture of 5/3-fold (2.5-fold for comparative compound 1 and compounds 1-38) final concentration of ATP and substrate to start reaction.
as §18, §19, §20, §21, §22, §23, §24

[5] = target: EGFR WT (Homo sapiens, UniProt P00533); assay: EGFR WT kinase test (mobility variation analysis, Caliper EZ Reader); type: biochemical; details: kinase enzymatic activity, Table 1
Experimental: as §12, §13, §14, §15, §16, §17, §18, §19, §20, §21, §22, §23, §24

| IC50 ([1]; Homo sapiens, A-431, 72 h) [nM] | GI50 [2] [nM] | IC50 [3] [nM] | IC50 [4] [nM] | IC50 [5] [nM] | IC50 [1] [nM] | Compound |
| --- | --- | --- | --- | --- | --- | --- |
| 812 | 21.8 | 0.7 | 150 | – | – | CCc1cc(Nc2ncc(Cl)c(Nc3ccc(-c4ccccc4)cc3P(C)(C)=O)n2)c(OC)cc1N1CCC(N2CCN(C)CC2)CC1 [Compound 2, (4-((5-Chloro-2-((5-ethyl-2-methoxy-4-(4-(4-methylpiperazin-1-yl)piperidin-1-yl)phenyl)amino)pyrimidin-4-yl)amino)-[1,1′-biphenyl]-3-yl)dimethylphosphine oxide] |
| > 10000 | 18.7 | 0.4 | 117 | 12.5 | – | CCc1cc(Nc2ncc(Br)c(Nc3ccc(-c4cccc(C#N)c4)cc3P(C)(C)=O)n2)c(OC)cc1N1CCC(N2CCN(C)CC2)CC1 [Compound 5, 4′-((5-Bromo-2-((5-ethyl-2-methoxy-4-(4-(4-methylpiperazin-1-yl)piperidin-1-yl)phenyl)amino)pyrimidin-4-yl)amino)-3′-(dimethylphosphineoxide)-[1,1′-diphenyl]-3-carbonitrile] |
| > 10000 | 21.4 | 0.9 | 147 | 16.7 | – | CCc1cc(Nc2ncc(Br)c(Nc3ccc(-c4ccc(F)cc4F)cc3P(C)(C)=O)n2)c(OC)cc1N1CCC(N2CCN(C)CC2)CC1 [Compound 6, (4-((5-Bromo-2-((5-ethyl-2-methoxy-4-(4-(4-methylpiperazin-1-yl)piperidin-1-yl)phenyl)amino)pyrimidin-4-yl)amino)-2′,4′-difluoro-[1,1′-biphenyl]-3-yl)dimethylphosphine oxide] |
| – | 46.2 | 0.5 | 187 | – | – | CCc1cc(Nc2ncc(Cl)c(Nc3ccc(-c4cnn5c4OCCC5)cc3P(C)(C)=O)n2)c(OC)cc1N1CCC(N2CCN(C)CC2)CC1 [Compound 7, (2-((5-Chloro-2-((5-ethyl-2-methoxy-4-(4-(4-methylpiperazin-1-yl)piperidin-1-yl)phenyl)amino)pyrimidin-4-yl)amino)-5-(6,7-dihydro-5H-pyrazolo[5,1-b][1,3]nitrox-3-yl)phenyl)dimethylphosphine oxide] |
| – | 16.1 | 0.3 | 66.5 | – | – | CCc1cc(Nc2ncc(Cl)c(Nc3ccc(-c4cncs4)cc3P(C)(C)=O)n2)c(OC)cc1N1CCC(N2CCN(C)CC2)CC1 [Compound 15, (2-((5-Chloro-2-((5-ethyl-2-methoxy-4-(4-(4-methylpiperazin-1-yl)piperidin-1-yl)phenyl)amino)pyrimidin-4-yl)amino)-5-(thiazol-5-yl)phenyl)dimethylphosphine oxide] |
| – | 42.9 | 0.5 | 261 | 18.9 | – | CCc1cc(Nc2ncc(Cl)c(Nc3ccc(-c4cnn5cnccc45)cc3P(C)(C)=O)n2)c(OC)cc1N1CCC(N2CCN(C)CC2)CC1 [Compound 23, (2-((5-Chloro-2-((5-ethyl-2-methoxy-4-(4-(4-methylpiperazin-1-yl)piperidin-1-yl)phenyl)amino)pyrimidin-4-yl)amino)-5-(pyrazolo[1,5-c]pyrimidin-3-yl)phenyl)dimethylphosphine oxide] |
| – | 44 | 0.7 | 264 | 66.9 | – | CCc1cc(Nc2ncc(Cl)c(Nc3ccc(-c4cnc(C)nc4)cc3P(C)(C)=O)n2)c(OC)cc1N1CCC(N2CCN(C)CC2)CC1 [Compound 24, (2-((5-Chloro-2-((5-ethyl-2-methoxy-4-(4-(4-methylpiperazin-1-yl)piperidin-1-yl)phenyl)amino)pyrimidin-4-yl)amino)-5-(2-methylpyrimidin-5-yl)phenyl)dimethylphosphine oxide] |
| – | 40.8 | 0.4 | 196 | 13.9 | – | CCc1cc(Nc2ncc(Cl)c(Nc3ccc(-c4nn(C)cc4C#N)cc3P(C)(C)=O)n2)c(OC)cc1N1CCC(N2CCN(C)CC2)CC1 [Compound 57] |
| > 10000 | 29.4 | – | – | – | – | CCc1cc(Nc2ncc(Br)c(Nc3ccc(-c4nccnc4OC)cc3P(C)(C)=O)n2)c(OC)cc1N1CCC(N2CCN(C)CC2)CC1 [Compound 72, (2-((5-Bromo-2-((5-ethyl-2-methoxy-4-(4-(4-methylpiperazin-1-yl)piperidin-1-yl)phenyl)(amino)amino]pyrimidin-4-yl)amino)-5-(3-methoxypyrazin-2-yl)phenyl)dimethylphosphine oxide] |
| – | 27.2 | – | – | – | > 10000 | CCc1cc(Nc2ncc(Br)c(Nc3ccc(-c4ccc(N(C)C)nn4)cc3P(C)(C)=O)n2)c(OC)cc1N1CCC(N2CCN(C)CC2)CC1 [Compound 77, (2-((5-Bromo-2-((5-ethyl-2-methoxy-4-(4-(4-methylpiperazin-1-yl)piperidin-1-yl)phenyl)amino]pyrimidin-4-yl)amino)-5-(6-(dimethylamino)pyridazin-3-yl)phenyl)dimethylphosphine oxide] |
| – | 5.8 | 0.1 | 54.9 | – | 1210 | CCc1cc(Nc2ncc(Br)c(Nc3ccc(-c4cnn(C)n4)c(F)c3P(C)(C)=O)n2)c(OC)cc1N1CCC(N2CCN(C)CC2)CC1 [Compound 84, (6-((5-Bromo-2-((5-ethyl-2-methoxy-4-(4-(4-methylpiperazin-1-yl)piperidin-1-yl)phenyl)amino)pyrimidin-4-yl)amino)-2-fluoro-3-(2-methyl-2H-1,2,3-triazol-4-yl)phenyl)dimethylphosphine oxide] |
| 99.6 | 2.1 | – | – | – | – | COc1cc(N2CCC(N3CCCCC3)CC2)c(-c2cnn(C)c2)cc1Nc1ncc(Br)c(Nc2ccc(-c3ccccc3)cc2P(C)(C)=O)n1 [Compound K-100] |
| – | – | 0.5 | 56 | 17 | – | CCc1cc(Nc2ncc(Br)c(Nc3ccc(-c4cnn(C(F)F)n4)cc3P(C)(C)=O)n2)c(OC)cc1N1CCC(N2CCN(C)CC2)CC1 [Compound K-106, (2-((5-Bromo-2-((5-ethyl-2-methoxy-4-(4-(4-methylpiperazin-1-yl)piperidin-1-yl)phenyl)amino)pyrimidin-4-yl)amino)-5-(2-(difluoromethyl)-2H-1,2,3-triazol-4-yl)phenyl)dimethylphosphine oxide] |
| – | – | 1.6 | 886 | 44 | – | (2-((5-Chloro-2-((5-ethyl-2-methoxy-4-(4-(4-methylpiperazin-1-yl)piperidin-1-yl)phenyl)amino)pyrimidin-4-yl)amino)-5-(3-ethoxy-5-methylisoxazol-4-yl)phenyl)dimethylphosphine oxide [Compound K-061] |
